Test results published in patent US8513232B2, “Substituted spirocyclic piperidine derivatives as histamine-3 (H3) receptor ligands” (Cephalon, Inc., priority 2008, dated 2013).
Values joined by “and” are separate entries in the source; they are usually repeats but may differ in a detail not shown here. Equal entries are not always repeated. Where two headings read alike, the source gives them in different places.

What was measured:
[1] = target: T1, rat histamine H3 receptor (Rattus norvegicus, UniProt Q9QYN8); assay: Rat H3 radioligand binding ([3H]-N-alpha-methylhistamine, SPA)
T1 construct: encoding the entire 445-amino-acid rat histamine H3 receptor; expressed in transfected cells; membrane preparation
T1 sequence (Q9QYN8 whole entry): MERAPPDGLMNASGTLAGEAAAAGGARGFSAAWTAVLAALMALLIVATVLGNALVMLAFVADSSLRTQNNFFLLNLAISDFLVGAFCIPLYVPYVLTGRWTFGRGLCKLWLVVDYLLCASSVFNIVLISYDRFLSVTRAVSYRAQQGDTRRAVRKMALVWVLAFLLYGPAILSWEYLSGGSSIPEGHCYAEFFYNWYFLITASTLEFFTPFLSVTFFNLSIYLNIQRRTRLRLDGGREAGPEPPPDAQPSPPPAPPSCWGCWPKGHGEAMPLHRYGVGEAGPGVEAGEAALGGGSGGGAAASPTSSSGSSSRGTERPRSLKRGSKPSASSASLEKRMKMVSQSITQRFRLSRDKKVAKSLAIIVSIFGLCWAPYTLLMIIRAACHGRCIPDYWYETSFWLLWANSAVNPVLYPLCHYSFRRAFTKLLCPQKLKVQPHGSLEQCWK
Method in brief: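 SPA-bead binding assay using [3H]-N-alpha-methylhistamine (approximately 1 nM final) with test compounds from 0.01 nM to 30 μM. Rat H3 receptor membranes came from stably transfected CHO-A3 cells; incubation ran 4 h at room temperature, in the dark, in Tris pH 7.4 buffer with MgCl2 and BSA. Clobenpropit (10 μM) gave non-specific binding.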

human H3 receptor = target: T2, human H3 receptor (Homo sapiens, UniProt Q9Y5N1); assay: Human H3 radioligand binding ([3H]-N-alpha-methylhistamine, SPA)
T2 construct: expressed in transfected cells
T2 sequence (Q9Y5N1 whole entry): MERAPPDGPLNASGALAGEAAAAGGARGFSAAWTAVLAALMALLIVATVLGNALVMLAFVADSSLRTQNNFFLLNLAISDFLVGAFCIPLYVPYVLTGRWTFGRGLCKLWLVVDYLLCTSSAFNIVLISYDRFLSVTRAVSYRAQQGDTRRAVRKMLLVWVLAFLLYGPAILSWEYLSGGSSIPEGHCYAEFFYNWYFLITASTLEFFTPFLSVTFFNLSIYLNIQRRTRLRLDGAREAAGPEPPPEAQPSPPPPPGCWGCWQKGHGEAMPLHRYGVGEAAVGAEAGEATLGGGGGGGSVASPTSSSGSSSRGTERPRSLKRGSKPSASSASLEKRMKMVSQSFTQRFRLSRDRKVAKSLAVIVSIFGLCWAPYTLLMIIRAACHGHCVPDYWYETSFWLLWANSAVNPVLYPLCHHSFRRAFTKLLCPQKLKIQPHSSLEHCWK
Method in brief: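 Compounds (0.01 nM-30 μM) competed with approximately 1 nM [3H]-N-alpha-methylhistamine for human H3 receptor in membranes of stably transfected CHO cells, 10 μg protein per well, in Tris-HCl pH 7.4/MgCl2/BSA buffer for 4 h at room temperature. Bound radioligand measured by scintillation proximity; 10 μM clobenpropit gave non-specific binding.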

[2] = rat H3 binding, Table D, read-out: Rat H3 Ki
[3] = human H3 binding, Table D, read-out: Human H3 Ki
[4] = Table A, rat H3 binding, read-out: Rat Ki
[5] = Table A, human H3 binding, read-out: Human Ki
[6] = Rat H3 binding, Table B, Examples 136-362, read-out: rat H3 binding Ki
[7] = Human H3 binding, Table B, Examples 136-362, read-out: hum H3 binding Ki
[8] = Table C, rat H3 binding, read-out: Rat H3 Ki
[9] = Table C, human H3 binding, read-out: Human H3 Ki

Row | SMILES | melting point | Ki [1, 2] [nM] | Ki (human H3 receptor; [3]) [nM] | Ki [1, 6] [nM] | Ki (human H3 receptor; [7]) [nM] | also measured
1 | O=c1cc(COc2ccc3c(c2)CCC2(CCN(C4CCC4)CC2)O3)cc[nH]1 [Example 663] | 205 to 206 °C | < 200 | < 200 | – | – | –
2 | O=C(c1ccc(-c2ccc3c(c2)COC2(CCN(C4CCC4)CC2)O3)cc1)N1CC[C@@H](F)C1 [Example 69] | 185 to 186 °C | – | – | – | – | Ki [1, 4]: < 200 nM; Ki (human H3 receptor; [5]): < 200 nM
3 | O=C(Nc1ccc2c(c1)COC1(CCN(C3CCC3)CC1)O2)C1CCOCC1 [Example 349] | 228 to 229 °C | – | – | < 200 | < 200 | –
4 | CN(C)C(=O)/C=C/c1ccc2c(c1)CCC1(CCN(C3CCC3)CC1)O2 [Example 594] | 187 to 189 °C | 200 to 1000 | < 200 | – | – | –
5 | O=c1c(Cl)c(-c2ccc3c(c2)COC2(CCN(C4CCC4)CC2)O3)ccn1CC(F)(F)F [Example 784] | 71.2 to 73.6 °C | < 200 | < 200 | – | – | –
6 | O=C(OCc1ccccc1)N1CC=C(c2ccc3c(c2)CCC2(CCN(C4CCC4)CC2)O3)CC1 [Example 447] | 237 to 239 °C | – | – | – | – | Ki ([1]; read-out: Rat H3 kI): < 200 nM; Ki (human H3 receptor; read-out: Human H3 Ki): < 200 nM
7 | O=C(NC1CCOCC1)c1ccc(-c2ccc3c(c2)COC2(CCN(C4CCC4)CC2)O3)c(Cl)c1 [Example 686] | 170 to 173 °C | < 200 | < 200 | – | – | –
8 | CCCn1cc(-c2ccc3c(c2)CCC2(CCN(C4CCC4)CC2)O3)cn1 [Example 183] | 97 to 99 °C | – | – | < 200 | < 200 | –
9 | O=C(c1ccc(-c2ccc3c(c2)COC2(CCN(C4CCC4)CC2)O3)cc1F)N1CC[C@H](O)C1 [Example 192] | 99.5 to 100.5 °C | – | – | < 200 | < 200 | –
10 | CN1CCN(c2ccc3c(c2)COC2(CCN(C4CCC4)CC2)O3)C1=O [Example 82] | 180 to 181 °C | – | – | – | – | Ki [1, 4]: < 200 nM; Ki (human H3 receptor; [5]): < 200 nM
11 | OC(c1ccc2c(c1)COC1(CCN(C3CCC3)CC1)O2)c1nccs1 (stereo not drawn) [Example 664] | 70 to 72 °C | < 200 | < 200 | – | – | –
12 | CN(c1ccc2c(c1)COC1(CCN(C3CCC3)CC1)O2)c1ccccn1 [Example 144] | 216 to 220 °C | – | – | < 200 | < 200 | –
13 | CN1CCN(c2ccc3c(c2)CCC2(CCN(C4CCC4)CC2)O3)CC1 [Example 364] | 125 to 126 °C | – | – | – | – | Ki [1, 8]: < 200 nM; Ki (human H3 receptor; [9]): < 200 nM
14 | O=C(Nc1ccc2c(c1)COC1(CCN(C3CCC3)CC1)O2)c1ccnnc1 [Example 203] | 206 to 207 °C | – | – | < 200 | < 200 | –
15 | CC(C)OCCNC(=O)c1ccc(-c2ccc3c(c2)COC2(CCN(C4CCC4)CC2)O3)cc1 [Example 311] | 155.5 to 157.3 °C | – | – | < 200 | < 200 | –
16 | Cc1c(-c2cc[nH]c(=O)c2)ccc2c1COC1(CCN(C3CCC3)CC1)O2 [Example 558] | > 300 °C | – | – | – | – | Ki ([1]; read-out: Rat H3 kI): < 200 nM; Ki (human H3 receptor; read-out: Human H3 Ki): < 200 nM
17 | CNC(=O)c1cc(-c2ccc3c(c2)CCC2(CCN(C4CCC4)C2)O3)ccc1Cl (stereo not drawn) [Example 581] | 100 to 103 °C | 200 to 1000 | < 200 | – | – | –
18 | O=S1(=O)CCC(Oc2ccc3c(c2)CCC2(CCN(C4CCC4)CC2)O3)CC1 [Example 467] | 239 to 241 °C and 239 to 240 °C | – | – | – | – | Ki ([1]; read-out: Rat H3 kI): < 200 nM; Ki (human H3 receptor; read-out: Human H3 Ki): < 200 nM
19 | O=c1cc(Oc2ccc3c(c2)CCC2(CCN(C4CCC4)CC2)O3)cc[nH]1 [Example 493] | 186 to 188 °C | – | – | – | – | Ki ([1]; read-out: Rat H3 kI): < 200 nM; Ki (human H3 receptor; read-out: Human H3 Ki): < 200 nM
20 | O=c1ccc(-c2ccc3c(c2)COC2(CCN(C4COC4)CC2)O3)c[nH]1 [Example 718] | 262 to 264 °C | > 1000 | > 1000 | – | – | –
21 | CC(=O)N1CCN(c2ccc3c(c2)COC2(CCN(C4CCC4)CC2)O3)CC1 [Example 283] | 60.8 to 62.3 °C | – | – | < 200 | < 200 | –

Row | SMILES | melting point | Ki [1, 2] [nM] | Ki (human H3 receptor; [3]) [nM] | Ki [1, 6] [nM] | Ki (human H3 receptor; [7]) [nM] | also measured
22 | CN(C)C(=O)N1CCN(c2ccc3c(c2)COC2(CCN(C4CCC4)CC2)O3)CC1 [Example 287] | 153 to 155 °C | – | – | < 200 | < 200 | –
23 | c1c[nH]c(-c2ccc3c(c2)COC2(CCN(C4CCC4)CC2)O3)c1 [Example 702] | 179 to 180 °C | < 200 | < 200 | – | – | –
24 | O=C1CCC(c2ccc3c(c2)COC2(CCN(C4CCC4)CC2)O3)CN1CC(F)F (stereo not drawn) [Example 560] | 120 to 126 °C | – | – | – | – | Ki ([1]; read-out: Rat H3 kI): 200 to 1000 nM; Ki (human H3 receptor; read-out: Human H3 Ki): 200 to 1000 nM
25 | Cc1n[nH]c(C)c1-c1ccc2c(c1)COC1(CCN(C3CCC3)CC1)O2 [Example 200] | 110 to 112 °C | – | – | < 200 | < 200 | –
26 | Cc1c(-c2ccc3c(c2)COC2(CCN(C4CCC4)CC2)O3)ccc(=O)n1C(F)F [Example 763] | 143 to 145 °C | < 200 | < 200 | – | – | –
27 | CNC(=O)c1ccc(-c2ccc3c(n2)COC2(CCN(C4CCC4)CC2)O3)cc1F [Example 133] | 172 to 173 °C | – | – | – | – | Ki [1, 4]: < 200 nM; Ki (human H3 receptor; [5]): < 200 nM
28 | Cc1ccncc1-c1ccc2c(c1)COC1(CCN(C3CCC3)CC1)O2 [Example 745] | 200 to 202 °C | < 200 | < 200 | – | – | –
29 | Cc1c(-c2ccc3c(c2)COC2(CCN(C4CCC4)CC2)O3)c[nH]c(=O)c1C [Example 799] | 178 to 180 °C | < 200 | < 200 | – | – | –
30 | c1cc2c(cc1N1CCOCC1)CCC1(CCN(C3CCC3)CC1)O2 [Example 403] | > 285 °C (dec.) | – | – | – | – | Ki [1, 8]: < 200 nM; Ki (human H3 receptor; [9]): < 200 nM
31 | O=C(Nc1cccc(Cl)c1)Nc1ccc2c(c1)COC1(CCN(C3CCC3)CC1)O2 [Example 186] | 216 to 217 °C | – | – | < 200 | < 200 | –
32 | Cc1cc(=O)[nH]c(C)c1-c1ccc2c(c1)COC1(CCN(C3CCC3)CC1)O2 [Example 806] | 247 to 249 °C | < 200 | < 200 | – | – | –
33 | COc1ccncc1-c1ccc2c(c1)COC1(CCN(C3CCC3)CC1)O2 [Example 749] | 58 to 60 °C | < 200 | < 200 | – | – | –
34 | c1csc(CNc2ccc3c(c2)COC2(CCN(C4CCC4)CC2)O3)c1 [Example 344] | 112 to 113 °C | – | – | < 200 | < 200 | –
35 | Cc1noc(C2CCN(c3ccc4c(c3)COC3(CCN(C5CCC5)CC3)O4)CC2)n1 [Example 628] | 125 to 126.2 °C | < 200 | < 200 | – | – | –
36 | N#Cc1ccc(Nc2ccc3c(c2)COC2(CCN(C4CCC4)CC2)O3)cc1 [Example 122] | 55 to 60 °C | – | – | – | – | Ki [1, 4]: < 200 nM; Ki (human H3 receptor; [5]): < 200 nM
37 | COc1cc(Oc2ccc3c(c2)CCC2(CCN(C4CCC4)CC2)O3)ccn1 [Example 486] | 125 to 127 °C | – | – | – | – | Ki ([1]; read-out: Rat H3 kI): < 200 nM; Ki (human H3 receptor; read-out: Human H3 Ki): < 200 nM
38 | CNC(=O)c1ccc(-c2ccc3c(c2)CCC2(CCN(C4CCC4)CC2)O3)cc1C#N [Example 246] | 80 to 82 °C | – | – | < 200 | < 200 | –
39 | Clc1ccc(-c2ccc3c(c2)CCC2(CCN(C4CCC4)CC2)O3)cn1 [Example 371] | 168 to 169 °C | – | – | – | – | Ki [1, 8]: < 200 nM; Ki (human H3 receptor; [9]): < 200 nM
40 | CO[C@H]1CCN(C(=O)c2ccc(-c3ccc4c(c3)COC3(CCN(C5CCC5)CC3)O4)cc2)C1 [Example 191] | 120 to 121 °C | – | – | < 200 | < 200 | –
41 | Cc1cc(C(=O)NC2CCOCC2)ccc1-c1ccc2c(c1)COC1(CCN(C3CCC3)CC1)O2 [Example 687] | 184 to 185 °C | < 200 | < 200 | – | – | –
